Active and inactive are the calls of the source.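 The calls were made as follows: active = compounds giving half or more protection of infected cells from virus-caused growth loss, again on retest; inactive = the rest.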 Where a SMILES comes first, the peptide text is derived from it. The star is where a group is joined. Boc = CC(C)(C)OC(=O)*; OBn = c1ccc(CO*)cc1
System: CEM cells HIV-1 protection, formazan growth assay
Assay: NCI AIDS Antiviral Assay
Settings: for IC50: measured here: growth of uninfected CEM cells
Method in brief: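 Human CEM cells, uninfected and HIV-1-infected, exposed to five drug concentrations; growth measured by soluble formazan assay and scored as percent protection from infection, with protecting compounds retested.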

| SMILES | EC50 | IC50 | outcome |
| --- | --- | --- | --- |
| O=S(=O)(N1CCCCN(S(=O)(=O)C(F)(F)F)CCCN(S(=O)(=O)C(F)(F)F)CCCN(S(=O)(=O)C(F)(F)F)CCCCN(S(=O)(=O)C(F)(F)F)CCCN(S(=O)(=O)C(F)(F)F)CCC1)C(F)(F)F | > 200 µM | > 200 µM |  |
| OC1CC[C@H](Cl)C2=C1[C@@]13C[C@]14OCCC3OC2[C@@H]4Cl (stereo not given in full) | > 427 µM | > 427 µM |  |
| CCn1c(=O)c2nc(SC)sc2n(-c2ccccc2)c1=O | > 200 µM | > 200 µM |  |
| Clc1ccc([S+](c2ccc(Cl)cc2)C(Cl)(Cl)C(Cl)(Cl)Cl)cc1 | > 52.5 µM | 7.24 µM |  |
| COC(=O)C1CCC(=S)N1C(=O)c1ccccc1 (stereo not given) | > 200 µM | > 200 µM |  |
| COc1cccc(/C=C(\NC(C)=O)c2nc3ccc(Cl)cc3[nH]2)c1 |  |  | inactive |
| CC(=O)Oc1ccc2cc(-c3ccc(OC(C)=O)c(OC(C)=O)c3)c(=O)oc2c1 | > 200 µM | 64.6 µM |  |
| COc1ccc(-c2cc3ccccc3oc2=O)cc1OC | > 200 µM | 41.7 µM |  |
| c1cc(-c2ccc(-c3ccsc3)s2)cs1 | > 200 µM | > 200 µM |  |
| Cc1ccc(NC2=CC(=O)C(=O)c3ccccc32)cc1 | > 27.5 µM | 20.4 µM |  |
| Nc1ccc2c(c1)C1(NC(=O)NC1=O)c1cc(N)ccc1-2 | > 200 µM | > 200 µM |  |
| O=[N+]([O-])c1cccc2nc3ccccc3c(NCCCNc3c4ccccc4nc4cccc([N+](=O)[O-])c34)c12 | > 200 µM | 0.0631 µM |  |
| Cc1ccc(N=NC2Sc3nc4ccccc4n3C2=O)cc1 (stereo not given) | > 200 µM | > 200 µM |  |
| CCc1ccccc1NC(=O)C(=O)C(C(=O)c1ccc(OC)cc1)c1ccc(OC)cc1 (stereo not given) |  |  | inactive |
| O=[N+]([O-])c1cccc(-c2ncc3c(n2)-c2ccccc2C3)c1 |  |  | inactive |
| O=C(/C(N=Nc1ccccc1)=C(\O)c1ccccc1)c1ccccc1 | > 21.9 µM | > 21.9 µM |  |
| CCC1(CC)CC(=NNS(=O)(=O)c2ccc(C)cc2)C1 |  |  | inactive |
| CN=c1ssc(/N=C(\SC)N(C)C)[n+]1C |  |  | inactive |
| O=C1OC(c2ccccc2)=N/C1=C\c1ccco1 | > 75.9 µM | 60.3 µM |  |
| Cc1noc2nccnc12 | > 186 µM | > 186 µM |  |
| CCP(=O)(CC)C(Cl)(Cl)C(=O)NC | > 200 µM | > 200 µM |  |
| Nc1ccc(C(=O)CC2(O)C(=O)Nc3c(Cl)cc(Cl)cc32)cc1 (stereo not given) | > 33.9 µM | 18.6 µM |  |

| SMILES | EC50 | IC50 | outcome |
| --- | --- | --- | --- |
| NC1CC(=O)c2c(Br)csc21 (stereo not given) | > 200 µM | 50.1 µM |  |
| Cc1c(C(=O)CC(=O)C(=O)Nc2ccc(Cl)cc2)[n+](=O)c2ccccc2n1[O-] | > 12.6 µM | > 12.6 µM |  |
| O=C(OCc1ccccc1)N1CCNCCN(C(=O)OCc2ccccc2)CCNCC1 | > 200 µM | 87.1 µM |  |
| CC(C)OC(=O)NCCn1cc(-c2ccccc2)nn1 | > 200 µM | > 200 µM |  |
| O=S1OCCO1 | > 2290 µM | > 2290 µM |  |
| CCCc1cc(=O)oc2c3c(cc(OC(C)COC)c12)O[C@H](C)[C@@H](C)[C@@H]3O (stereo not given in full) | 4.68 µM | 29.5 µM |  |
| O=C(Nc1nc2ccc(Cl)cc2[nH]1)c1ccccc1O | > 200 µM | 12 µM |  |
| CCOC(=O)c1ccc(NCc2ccc3nc(OC)c(OC)nc3c2)cc1 | > 100 µM | > 100 µM |  |
| O=C1C=CC(=O)c2c1ccc1c3ccccc3n(CCCCCCCCCCCCn3c4ccccc4c4ccc5c(c43)C(=O)C=CC5=O)c21 | > 100 µM | 72.4 µM |  |
| CC(Cc1ccccc1)NN(CS(=O)(=O)O)CS(=O)(=O)O (stereo not given) |  |  | inactive |
| CCOC(=O)C1N(S(=O)(=O)c2ccc(C)cc2)CCC12C(c1ccc(OC)c(OC)c1)=Nc1ccccc12 (stereo not given) |  |  | inactive |
| CCC1(N=[N+]=[N-])C(=O)Nc2cc(C)ccc2C1=O (stereo not given) | > 200 µM | > 100 µM |  |
| COc1cc(N=Nc2cc(NC(C)=O)c(N=Nc3ccc(C(=O)O)cc3)cc2S(=O)(=O)O)c(C)cc1N=Nc1ccc(NC(=O)c2ccc(N)cc2)cc1C | 14.1 µM | > 100 µM |  |
| Cn1c2ccccc2c2nnc(N/N=C/c3ccccn3)nc21 | > 200 µM | 0.115 µM |  |
| Cn1c2c3ccccc3nc-2cc2ccccc21 | > 174 µM | 0.316 µM |  |
| CC1CCC(=O)C(C(=O)CC2CC(=O)NC(=O)C2)C1 (stereo not given) | > 200 µM | > 200 µM |  |
| CC(C)C(NC(=O)C(Cc1ccccc1)NC(=O)OC(C)(C)C)C(=O)NCC(=O)OCc1ccccc1 (stereo not drawn) (Boc-Phe-Val-Gly-OBn; configuration not given here) | > 200 µM | 10.7 µM |  |
| O=c1[nH][nH]c(=O)c2nc3c(nc12)c1nc2c(=O)[nH][nH]c(=O)c2nc1c1nc2c(=O)[nH][nH]c(=O)c2nc31 |  |  | inactive |
| Cc1ccc(NC(=O)CCc2n[nH]c(=S)o2)cc1 | > 5.5 µM | > 5.5 µM |  |
| COc1ccccc1NC(=O)CC(=O)N1N=C(C)C(N=Nc2ccc(C(=O)O)cc2)C1=O (stereo not given) | > 200 µM | > 200 µM |  |
| C(=Nc1ccccc1)c1ccc(C=Nc2ccccc2)cc1 | > 3.63 µM | > 3.63 µM |  |
| COc1ccc(C[C@@H](CO)NC2=C(C#N)CCC2)cc1 | > 200 µM | 64.6 µM |  |

— PubChem BioAssay AID179 (DTP/NCI, 2004)
